Experimental data as given in US20070072897A1, “Phenylaminopropanol derivatives and methods of their use” (Wyeth, priority 2005, published 2007).
Structures can show the parent of a compound that is named as a salt.

Each compound was assayed against T1, human hNET (Homo sapiens, UniProt P23975) (assay: Norepinephrine (NE) uptake assay in MDCK-Net6 cells). Details: [3H]NE uptake, MDCK-Net6 cells stably transfected with hNET.
T1 construct: expressed in transfected cells; host or cells: MDCK (MDCK-Net6)
T1 sequence (P23975 whole entry): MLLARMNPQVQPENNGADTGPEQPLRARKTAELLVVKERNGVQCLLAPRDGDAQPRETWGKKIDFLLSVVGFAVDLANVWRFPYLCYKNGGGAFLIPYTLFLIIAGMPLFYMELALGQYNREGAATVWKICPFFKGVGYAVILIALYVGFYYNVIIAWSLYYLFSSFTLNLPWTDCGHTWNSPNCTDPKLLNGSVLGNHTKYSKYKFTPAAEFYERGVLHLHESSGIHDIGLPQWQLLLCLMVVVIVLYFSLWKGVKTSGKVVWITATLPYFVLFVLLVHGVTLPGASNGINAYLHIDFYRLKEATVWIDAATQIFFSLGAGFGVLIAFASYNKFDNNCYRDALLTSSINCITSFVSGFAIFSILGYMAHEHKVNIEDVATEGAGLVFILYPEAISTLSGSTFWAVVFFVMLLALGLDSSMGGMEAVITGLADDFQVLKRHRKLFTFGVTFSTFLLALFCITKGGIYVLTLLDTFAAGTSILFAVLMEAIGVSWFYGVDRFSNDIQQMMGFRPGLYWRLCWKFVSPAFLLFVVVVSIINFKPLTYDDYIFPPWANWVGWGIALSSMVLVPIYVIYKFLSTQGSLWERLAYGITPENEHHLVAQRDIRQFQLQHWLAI
Assay type: cell-based
Procedure: Cells were plated at 300,000/T75 flask and cells were split twice weekly. […] Cells were plated at 250,000 cells/T75 flask and split twice weekly.
Norepinephrine (NE) Uptake Assay
On day 1, cells were plated at 3,000 cells/well in growth medium and maintained in a cell incubator (37° C., 5% CO2). On day 2, growth medium was replaced with 200 μl of assay buffer (25 mM HEPES; 120 mM NaCl; 5 mM KCl; 2.5 mM CaCl2; 1.2 mM MgSO4; 2 mg/ml glucose (pH 7.4, 37° C.)) containing 0.2 mg/ml ascorbic acid and 10 μM pargyline. Plates containing cells with 200 μl of assay buffer were equilibrated for 10 minutes at 37° C. prior to addition of compounds. A stock solution of desipramine was prepared in DMSO (10 mM) and delivered to triplicate wells containing cells for a final test concentration of 1 μM. Data from these wells were used to define non-specific NE uptake (minimum NE uptake). Test compounds were prepared in DMSO (10 mM) and diluted in assay buffer according to test range (1 to 10,000 nM). Twenty-five microliters of assay buffer (maximum NE uptake) or test compound were added directly to triplicate wells containing cells in 200 μl of assay buffer. The cells in assay buffer with test compounds were incubated for 20 minutes at 37° C. […] The reaction was terminated by decanting the supernatant from the plate. The plates containing cells were washed twice with 200 μl assay buffer (37° C.) to remove free radioligand. The plates were then inverted, left to dry for 2 minutes, then reinverted and air-dried for an additional 10 minutes. […] After cell lysis, 75 μl of scintillation cocktail was added to each well and the plates were sealed with film tape. The plates were returned to the shake table and vigorously shaken for a minimum of 10 minutes to ensure adequate partitioning of organic and aqueous solutions. The plates were counted in a Wallac Microbeta counter (PerkinElmer) to collect the raw cpm data.
For each experiment, a data stream of cpm values collected from the Wallac Microbeta counter was downloaded to a Microsoft Excel statistical application program. Calculations of EC50 values were made using the transformed-both-sides logistic dose response program written by Wyeth Biometrics Department.
`CNC[C@@H](O)[C@H](c1cccc(Cl)c1)N1C(=O)C(C)(C)c2cccc(F)c21` [Example 69, 1-[(1S,2R)-1-(3-chlorophenyl)-2-hydroxy-3-(methylamino)propyl]-7-fluoro-3,3-dimethyl-1,3-dihydro-2H-indol-2-one hydrochloride] was tested, and the EC50 was 92 nM.
Compound `CNC[C@@H](O)[C@H](c1cccc(F)c1)n1c(=O)n(-c2ccccc2)c2cccc(F)c21` [Example 120, 4-fluoro-3-[(1S,2R)-1-(3-fluorophenyl)-2-hydroxy-3-(methylamino)propyl]-1-phenyl-1,3-dihydro-2H-benzimidazol-2-one hydrochloride] has an EC50 of 92 nM.
In the case of `CNC[C@@H](O)[C@H](c1cccc(F)c1)n1cc(-c2ccc(F)cc2)c2ccccc21` [Example 36, (1S,2R)-1-(3-fluorophenyl)-1-[3-(4-fluorophenyl)-1H-indol-1-yl]-3-(methylamino)propan-2-ol hydrochloride], the EC50 is reported as 711 nM.
In the case of `CNC[C@@H](O)[C@H](c1cc(F)cc(Cl)c1)n1ccc2ccccc21` [Example 70, (1S,2R)-1-(3-chloro-5-fluorophenyl)-1-(1H-indol-1-yl)-3-(methylamino)propan-2-ol hydrochloride], the EC50 is reported as 62 nM.
In the case of `CNC[C@@H](O)[C@H](c1cc(F)cc(Cl)c1)N1C(=O)C(C)(C)c2cccc(F)c21` [Example 112, 1-[(1S,2R)-1-(3-chloro-5-fluorophenyl)-2-hydroxy-3-(methylamino)propyl]-7-fluoro-3,3-dimethyl-1,3-dihydro-2H-indol-2-one hydrochloride], the EC50 is reported as 2 nM.
For `CCC1CN([C@@H](c2ccccc2)[C@H](O)CNC)c2ccccc21` (stereo partly drawn) [Example 59, (1S,2R)-1-(3-ethyl-2,3-dihydro-1H-indol-1-yl)-3-(methylamino)-1-phenylpropan-2-ol hydrochloride], the EC50 was 16 nM.
`CNC[C@@H](O)[C@H](c1cccc(F)c1)n1ccc2cc(O)ccc21` [Example 66, 1-[(1S,2R)-1-(3-fluorophenyl)-2-hydroxy-3-(methylamino)propyl]-1H-indol-5-ol hydrochloride] showed an EC50 of 3 nM.
Work on `CCOc1ccccc1-c1cn([C@@H](c2cccc(F)c2)[C@H](O)CNC)c2ccccc12` [Example 42, (1S,2R)-1-[3-(2-ethoxyphenyl)-1H-indol-1-yl]-1-(3-fluorophenyl)-3-(methylamino)propan-2-ol hydrochloride] yielded an EC50 of 71 nM.
In the case of `CNC[C@@H](O)[C@H](c1cccc(F)c1)N1C(=O)C2(CCC2)c2cccc(F)c21` [Example 116, 7′-fluoro-1′-[(1S,2R)-1-(3-fluorophenyl)-2-hydroxy-3-(methylamino)propyl]spiro[cyclobutane-1,3′-indol]-2′(1′H)-one hydrochloride], the EC50 is reported as 10 nM.
In the case of `CNC[C@@H](O)[C@H](c1cccc(F)c1)n1cc(-c2ccccc2OC(F)(F)F)c2ccccc21` [Example 34, (1S,2R)-1-(3-fluorophenyl)-3-(methylamino)-1-{3-[2-(trifluoromethoxy)phenyl]-1H-indol-1-yl}propan-2-ol hydrochloride], the EC50 is reported as 327 nM.
With `CNC[C@@H](O)[C@H](c1cc(F)cc(Cl)c1)N1CC(C)(C)c2ccccc21` [Example 115, (1S,2R)-1-(3-chloro-5-fluorophenyl)-1-(3,3-dimethyl-2,3-dihydro-1H-indol-1-yl)-3-(methylamino)propan-2-ol hydrochloride] the EC50 was 133 nM.
`CNC[C@@H](O)[C@H](c1cccc(F)c1)N1C(=O)C2(CCCCC2)c2cccc(F)c21` [Example 110, 7′-fluoro-1′-[(1S,2R)-1-(3-fluorophenyl)-2-hydroxy-3-(methylamino)propyl]spiro[cyclohexane-1,3′-indol]-2′(1′H)-one hydrochloride] gave an EC50 of 6 nM.
In the case of `CNC[C@@H](O)[C@H](c1ccccc1)N1C(=O)C2(CCCCC2)c2cc(OCc3ccccc3)ccc21` [Example 67, 5′-(benzyloxy)-1′-[(1S,2R)-2-hydroxy-3-(methylamino)-1-phenylpropyl]spiro[cyclohexane-1,3′-indol]-2′(1′H)-one hydrochloride], the EC50 is reported as 839 nM.
`CNC[C@@H](O)[C@H](c1cccc(F)c1)n1ccc2ccnc(C)c21` [Example 50, (1S,2R)-1-(3-fluorophenyl)-3-(methylamino)-1-(7-methyl-1H-pyrrolo[2,3-c]pyridin-1-yl)propan-2-ol hydrochloride] showed an EC50 of 521 nM.
`CNC[C@@H](O)[C@H](c1ccccc1)n1ccc2cc(OCc3ccccn3)ccc21` [Example 92, (1S,2R)-3-(methylamino)-1-phenyl-1-[5-(pyridin-2-ylmethoxy)-1H-indol-1-yl]propan-2-ol hydrochloride] showed an EC50 of 9 nM.
For `CNC[C@@H](O)[C@H](c1ccccc1)N1CCc2cccc(F)c21` [Example 119, (1S,2R)-1-(7-Fluoro-2,3-dihydro-1H-indol-1-yl)-3-(methylamino)-1-phenylpropan-2-ol hydrochloride], the EC50 was 39 nM.
In the case of `CNC[C@@H](O)[C@H](c1cc(F)cc(F)c1)N1C(=O)C(C)(C)c2cccc(F)c21` [Example 62, 1-[(1S,2R)-1-(3,5-difluorophenyl)-2-hydroxy-3-(methylamino)propyl]-7-fluoro-3,3-dimethyl-1,3-dihydro-2H-indol-2-one hydrochloride], the EC50 is reported as 4 nM.
Work on `CNC[C@@H](O)[C@H](c1cccc(F)c1)n1cc(-c2cc(F)ccc2F)c2ccccc21` [Example 39, (1S,2R)-1-[3-(2,5-difluorophenyl)-1H-indol-1-yl]-1-(3-fluorophenyl)-3-(methylamino)propan-2-ol hydrochloride] yielded an EC50 of 70 nM.
In the case of `CNC[C@@H](O)[C@H](c1cccc(F)c1)n1ccc2cc(OC)nc(Cl)c21` [Example 43, (1S,2R)-1-(7-chloro-5-methoxy-1H-pyrrolo[2,3-c]pyridin-1-yl)-1-(3-fluorophenyl)-3-(methylamino)propan-2-ol hydrochloride], the EC50 is reported as 299 nM.
In the case of `CNC[C@@H](O)[C@H](c1cccc(Cl)c1)N1C(=O)C2(CCCCC2)c2ccc(F)cc21` [Example 111, 1′-[(1S,2R)-1-(3-chlorophenyl)-2-hydroxy-3-(methylamino)propyl]-6′-fluorospiro[cyclohexane-1,3′-indol]-2′(1′H)-one hydrochloride], the EC50 is reported as 186 nM.

Same assay, conditions: at 1 μM; [3H]NE uptake, MDCK-Net6 cells; read-out: hNET Percentage inhibition at 1 μM
Work on `CNC[C@@H](O)[C@H](c1cccc(F)c1)n1cc(-c2ccccc2Oc2ccccc2)c2ccccc21` [Example 37, (1S,2R)-1-(3-fluorophenyl)-3-(methylamino)-1-[3-(2-phenoxyphenyl)-1H-indol-1-yl]propan-2-ol hydrochloride] yielded an inhibition at 1 µM of 26%.
For `CNC[C@@H](O)[C@H](c1ccccc1)n1ccc2cc(C)ncc21` [Example 47, (1S,2R)-3-(methylamino)-1-(5-methyl-1H-pyrrolo[2.3-c]pyridin-1-yl)-1-phenylpropan-2-ol hydrochloride], the inhibition at 1 µM was 35%.
In the case of `CNC[C@@H](O)[C@H](c1ccccc1)n1ccc2ccnc(C)c21` [Example 49, (1S,2R)-3-(methylamino)-1-(7-methyl-1H-pyrrolo[2,3-c]pyridin-1-yl)-1-phenylpropan-2-ol hydrochloride], the inhibition at 1 µM is reported as 51%.
With `CNC[C@@H](O)[C@H](c1ccccc1)n1ccc2cc(OC)ncc21` [Example 45, (1S,2R)-1-(5-methoxy-1H-pyrrolo[2,3-c]pyridin-1-yl)-3-(methylamino)-1-phenylpropan-2-ol hydrochloride] the inhibition at 1 µM was 43%.
For `CNC[C@@H](O)[C@H](c1cccc(F)c1)n1ccc2cc(OC)ncc21` [Example 46, (1S,2R)-1-(3-fluorophenyl)-1-(5-methoxy-1H-pyrrolo[2,3-c]pyridin-1-yl)-3-(methylamino)propan-2-ol hydrochloride], the inhibition at 1 µM was 46%.
